Measured values published in PMC9034974, “Physicochemical characterization of the recombinant lectin scytovirin and microbicidal activity of the SD1 domain produced in rice against HIV-1” (Plant Cell Reports, 2022).

Key:
Format in all cases: binding
[1] = molecular target: T1, scytovirin (SVN) (Scytonema varium, UniProt P86041); test: differential scanning calorimetry; conditions: 10 mM sodium phosphate pH 7.4, 3 mM sodium azide; 20 µM protein, 60 °C/h; Tm of the complex, not a shift; free SVN in the 2nd table, row 3
T1 sequence (P86041 1-95): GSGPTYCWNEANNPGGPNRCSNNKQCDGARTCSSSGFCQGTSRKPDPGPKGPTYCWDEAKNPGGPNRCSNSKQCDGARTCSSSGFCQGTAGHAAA
Text: differential scanning calorimetry on scytovirin (SVN)

[2] = molecular target: T1, scytovirin (SVN); test: isothermal titration calorimetry; conditions: 10 mM sodium phosphate pH 7.4, 3 mM sodium azide, 30 °C; one set of identical sites
Text: isothermal titration calorimetry on scytovirin (SVN)

[3] = molecular target: T2, SD1 (structural domain 1 of scytovirin) (Scytonema varium, UniProt P86041); test: differential scanning calorimetry; conditions: 10 mM sodium phosphate pH 7.4, 3 mM sodium azide; 20 µM protein, 60 °C/h; shift is a decrease (destabilization)
T2 construct: isolated N-terminal domain SD1 (residues 1-48), recombinant from E. coli, purified
T2 sequence (P86041 1-48): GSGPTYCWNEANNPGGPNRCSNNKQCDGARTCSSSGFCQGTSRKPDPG

| Tm °C [1] [°C] | Kd [2] [µM] | ΔTm [3] | Substance |
| --- | --- | --- | --- |
| 56.50 ± 0.05 | 3.99 ± 0.93 |  | nonamannoside |
|  | 17.8 ± 2.75 | ~ 11.5 °C | tetramannoside |
